One assay has as its system p-ERK in PC-3 cells. The assay can be described thus: Immunoblot of ERK phosphorylation. The format is cell-based, human. The following applies: 24 h. The procedure:
(§1) The whole-cell lysates were prepared as described previously in immunoprecipitation (IP) buffer containing 50 mM Tris-HCl (pH 8.0), 150 mM NaCl, 5 mM EDTA, and 1% Triton X-100. Protein aliquots of 500 μg were then incubated overnight at 4°C using 2 μg of antibody directed against AR. The Protein A-Cl Agarose beads were then added and further incubated for 6 h at 4°C. The immunoprecipitates were washed four times with the IP buffer and the immunocomplexes were recovered by boiling in SDS sample buffer. Finally the western blot was carried out using anti-AR, anti-SRC-1 and anti-GRIP-1 antibodies (Santa Cruz, CA, USA). For western blot analysis, the cell lysates were prepared after harvesting them in lysis buffer. About 40 μg of total protein was electrophoresed by 12% SDS-PAGE, and the western blotting was carried out using standard protocol. In brief, the analyzed proteins were transferred to nylon membranes. The blots were then blocked with TBST buffer (20 mM Tris-Cl, pH 7.5, 150 mM sodium chloride, 0.05% Tween-20) containing 5% skim milk powder. They were then washed with TBST buffer and incubated overnight at 4°C with the same buffer containing appropriate amounts of primary antibodies: caspase-3, Bax, Bcl-2, Akt, p-Akt, ERK, p-ERK, AR, SRC-1, GRIP-1 (1∶500) and β-actin (1∶1000). The blots were then washed and incubated with anti-rabbit secondary antibody (1∶20,000) conjugated with horseradish peroxidase (HRP). Color development was performed in the dark by using an ECL kit (Amersham, GE Healthcare, Buckinghamshire, UK). The developed blots were subjected to densitometric analysis by ImageJ 1.43 software (NIH, USA) using β-actin as internal control.
The siRNAs against human Akt and ERK and control siRNA were purchased commercially from Santa Cruz Biotechnology (USA). The LNCaP and PC-3 PCa cells were transfected with siRNAs (at a final concentration of 100 nM) using polyfect transfection reagent (Qiagen, CA, USA) according to manufacturer’s instructions. After 24 h of transfection, the cells were washed properly and replaced with fresh medium. The cells were then treated with 20 μM conjugate for 24 h, and finally protein lysates were prepared on completion of treatment. The levels of p-Akt, p-ERK and cleaved caspase-3 expressions were detected by Western blot analysis.

The test system of assay [1] is AR gene expression in LNCaP cells. The assay can be described thus: RT-PCR of AR expression. The following applies: for reduction of DHT induced AR transcription: 10 nM DHT. The format is cell-based, human. The procedure:
Total RNA was extracted from the treated cells using RNA isolation kit obtained from Genei (Bangalore, India). The extracted RNA samples were then quantified and equal amount of the individual treatments was transcribed with the help of an RT - PCR kit from Genei (Bangalore, India) according to the manufacturer’s instruction. PCR was performed by denaturing at 94°C for 60 s, annealing at various temperatures (depending on primer pairs used) for 45 s and extension at 72°C for 2 min followed by the number of cycles for amplification. Primers for Bcl-2, Bcl-xL, Bax, AR and β-Actin were designed with the help of Primer 3 software and standardized in the laboratory. The PCR products were then separated on 2% agarose gel and visualized in a gel documentation system (Bio Rad, USA). The intensity of the bands on agarose gels were analyzed using ImageJ 1.43 software (NIH, USA) and normalized with respect to β-actin PCR products. Each of the RT-PCR was carried out three times. Table S1 presents the primer sequence, product size, annealing temperature, and number of cycles used for all primers.

The target in assay [2] is T1, AR nuclear localization in LNCaP cells (Homo sapiens, UniProt P10275).
T1 construct: expressed in transfected cells; host or cells: LNCaP and PC-3
The assay is described as follows: GFP-AR nuclear localization. Format: cell-based. The following applies: 10 and 20 μM with 10 nM DHT. The procedure: (§2) For localization studies, pEGFP-AR plasmid was transfected to LNCaP and PC-3 cells (300 ng/10^5 cells).

For assay [3], the target named is T2, AR nuclear localization in PC-3 cells (Homo sapiens, UniProt P10275).
T2 construct: expressed in transfected cells; host or cells: LNCaP and PC-3
The assay is described as follows: GFP-AR nuclear localization. Format: cell-based. To be noted: PC-3, 10 and 20 μM with 10 nM DHT. The procedure: as §2

The test system of another assay is GRIP-1 in LNCaP cells. The assay is described as follows: Immunoblot of AR co-activators. The format is cell-based, human. The procedure:
as §1
A general note: Immunoblotting shows a protein as a band on a membrane.

Another assay has as its system SRC-1 in LNCaP cells. The assay is described as follows: Immunoblot of AR co-activators. Format: cell-based, human. The procedure: as §1
A further assay deals with LNCaP cells. The assay is described as follows: MTT cell death with/without p53 inhibitor PFT-α. Format: cell-based, human. The following applies: 20 and 40 μM conjugate 24 h, 20 μM PFT-α pre-treatment. From the text:
Since there was no significant difference in the number of apoptotic cells between conjugate treated LNCaP (wild type p53) and PC-3 (p53 null) cells (p<0.05), it was intriguing to check if p53 has any role in conjugate induced apoptosis of PCa cells. For this study we employed a pharmacological approach using specific wild type p53 inhibitor, pifithrin-α (PFT-α). PFT-α is a small molecule that binds to the DNA binding domain of p53, thereby inhibiting its transcriptional activity. For our experiment the LNCaP cells were pre-treated with 20 μM PFT-α for 2 h prior to the addition of 20 and 40 μM of conjugate for next 24 h. Subsequently the drug treated cells were used to check caspase-3 activity and cell death by immunoblot analysis (Fig. 4A) and MTT assay (Fig. 4B) respectively. […] Next we determined the effect of p53-inhibition on conjugate induced cell death by using MTT assay.

Results on one molecule are retold here after paper PMC3974779, “Pterostilbene-Isothiocyanate Conjugate Suppresses Growth of Prostate Cancer Cells Irrespective of Androgen Receptor Status” (PLoS ONE, 2014).

T1 sequence (P10275 whole entry): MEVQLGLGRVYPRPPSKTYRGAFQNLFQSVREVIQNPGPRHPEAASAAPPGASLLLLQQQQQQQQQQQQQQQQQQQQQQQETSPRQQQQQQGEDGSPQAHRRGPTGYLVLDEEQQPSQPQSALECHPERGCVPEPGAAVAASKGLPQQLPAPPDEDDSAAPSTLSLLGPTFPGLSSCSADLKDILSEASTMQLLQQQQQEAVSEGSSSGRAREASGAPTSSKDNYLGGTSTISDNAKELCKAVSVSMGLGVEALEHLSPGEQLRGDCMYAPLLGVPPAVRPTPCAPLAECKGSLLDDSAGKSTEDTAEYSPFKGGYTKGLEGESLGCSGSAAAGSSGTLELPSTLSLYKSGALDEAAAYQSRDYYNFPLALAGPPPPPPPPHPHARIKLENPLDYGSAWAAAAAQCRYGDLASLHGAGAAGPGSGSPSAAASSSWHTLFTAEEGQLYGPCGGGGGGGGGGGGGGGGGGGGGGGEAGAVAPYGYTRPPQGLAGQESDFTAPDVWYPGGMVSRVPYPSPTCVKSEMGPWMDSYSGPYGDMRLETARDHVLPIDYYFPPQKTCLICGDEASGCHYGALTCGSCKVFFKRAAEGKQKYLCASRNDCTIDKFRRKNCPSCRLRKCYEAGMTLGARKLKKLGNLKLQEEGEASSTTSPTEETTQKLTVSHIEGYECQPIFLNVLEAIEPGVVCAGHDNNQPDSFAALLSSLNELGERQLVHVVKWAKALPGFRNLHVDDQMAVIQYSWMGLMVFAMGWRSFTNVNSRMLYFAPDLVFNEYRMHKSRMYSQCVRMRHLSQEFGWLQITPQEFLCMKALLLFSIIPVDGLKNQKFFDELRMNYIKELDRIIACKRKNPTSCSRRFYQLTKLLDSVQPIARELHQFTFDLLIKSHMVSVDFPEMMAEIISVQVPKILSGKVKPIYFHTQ
T2 sequence (P10275 whole entry): as above

For `COc1cc(/C=C/c2ccc(O)c(/C=N/NC(N)=S)c2)cc(OC)c1` [conjugate, Pterostilbene-isothiocyanate conjugate], the “reduction in level of p-ERK” value was 1.3 folds in the assay on p-ERK in PC-3 cells (PC-3, 20 μM) and 1.7 folds in the assay on p-ERK in PC-3 cells (PC-3, 40 μM). Further, the “reduction of DHT induced AR transcription” value in assay [1] (10 μM) is “about 1.2 fold”; in assay [1] (20 μM), ~1.3 fold; in assay [1] (40 μM), ~1.4 fold. The “effect on expression of AR gene” value in assay [1] (below 40 μM, absence of 10 nM DHT, RT-PCR) is “no significant effects”. The “DHT induced nuclear localization of AR” value in assay [2] and in assay [3] was “significantly inhibited” in each case. For the same molecule, the “reduction of GRIP-1 level” value in the assay with GRIP-1 in LNCaP cells (10 μM) is 1.7 folds; in the assay on GRIP-1 in LNCaP cells (20 μM), 2.6 folds. In addition, the “decrease in expression of SRC-1 protein” value in the assay with SRC-1 in LNCaP cells (10 μM) is on record as 1.4 folds; in the assay on SRC-1 in LNCaP cells (20 μM), 2.6 folds. Moreover, the “cell death with vs without PFT-α” value in the assay on LNCaP cells is reported as “did not differ significantly”.
